Laboratory results: PubChem BioAssay (NCI)
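Exposure lasted 48 hours, with cells grown in 96-well plates and compounds tested at five concentrations. At the GI50, growth is halved. The concentration for full growth arrest is given as TGI.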

Experiments:
Assay in all cases: inhibition of tumour cell growth, NCI panel, 48 h
[1] = test system: HCT-15 colon
[2] = test system: A549 NSCLC
[3] = test system: SF-295 CNS
[4] = test system: OVCAR-8 ovarian
[5] = test system: LOX IMVI melanoma
[6] = test system: SF-268 CNS
[7] = test system: UO-31 renal
[8] = test system: U251 CNS
[9] = test system: SNB-19 CNS
[10] = test system: HCT-116 colon
[11] = test system: MOLT-4 leukemia
[12] = test system: PC-3 prostate
[13] = test system: NCI/ADR-RES ovarian
[14] = test system: HOP-92 NSCLC
[15] = test system: OVCAR-3 ovarian
[16] = test system: SN12C renal
[17] = test system: CAKI-1 renal
[18] = test system: 786-0 renal
[19] = test system: CCRF-CEM leukemia
[20] = test system: K-562 leukemia
[21] = test system: RXF 393 renal
[22] = test system: MALME-3M melanoma
[23] = test system: MDA-MB-435
[24] = test system: UACC-62 melanoma
[25] = test system: OVCAR-5 ovarian
[26] = test system: SK-OV-3 ovarian
[27] = test system: DU-145 prostate
[28] = test system: UACC-257 melanoma
[29] = test system: NCI-H23 lung
[30] = test system: SK-MEL-5 melanoma
[31] = test system: SK-MEL-2 melanoma
[32] = test system: MDA-MB-231 breast
[33] = test system: BT-549 breast
[34] = test system: EKVX NSCLC
[35] = test system: T-47D breast
[36] = test system: SW-620 colon
[37] = test system: HT29 colon
[38] = test system: IGROV1 ovarian
[39] = test system: NCI-H226 lung
[40] = test system: TK-10 renal
[41] = test system: KM12 colon
[42] = test system: OVCAR-4 ovarian
[43] = test system: MCF7 breast
[44] = test system: HOP-62 NSCLC
[45] = test system: HCC-2998 colon
[46] = test system: SF-539 CNS
[47] = test system: ACHN renal
[48] = test system: SK-MEL-28 melanoma
[49] = test system: NCI-H460 lung
[50] = test system: NCI-H522 lung
[51] = test system: HS 578T breast
[52] = test system: RPMI-8226 leukemia
[53] = test system: COLO 205 colon

O=C(CN(/C=C/C(=O)C(F)(F)F)c1ccc(Cl)cc1)c1ccc(F)cc1
GI50 [1]: 4.21 µM
TGI [1]: 21.4 µM
GI50 [2]: 18.7 µM
TGI [2]: 81.1 µM
GI50 [3]: 15.2 µM
TGI [3]: 34.1 µM
GI50 [4]: 15.2 µM
TGI [4]: 38.4 µM
GI50 [5]: 0.736 µM
TGI [5]: 16.9 µM
GI50 [6]: 12.3 µM
TGI [6]: 30 µM
GI50 [7]: 10.9 µM
TGI [7]: 23.3 µM
GI50 [8]: 11 µM
TGI [8]: 23 µM
GI50 [9]: 16.2 µM
TGI [9]: 34.2 µM
GI50 [10]: 14.5 µM
TGI [10]: 52.3 µM
GI50 [11]: 5.59 µM
TGI [11]: 28.4 µM
GI50 [12]: 11.8 µM
TGI [12]: 25.9 µM
GI50 [13]: 14.4 µM
TGI [13]: 31.7 µM
GI50 [14]: 18 µM
TGI [14]: 36.8 µM
GI50 [15]: 13 µM
TGI [15]: 28.2 µM
GI50 [16]: 16.1 µM
TGI [16]: 29.6 µM
GI50 [17]: 10.4 µM
TGI [17]: 32.7 µM
GI50 [18]: 18 µM
TGI [18]: 42.3 µM
GI50 [19]: 3.39 µM
TGI [19]: 19.8 µM
GI50 [20]: 2.69 µM
TGI [20]: 22.2 µM
GI50 [21]: 42.9 µM
TGI [21]: > 100 µM
GI50 [22]: 13.7 µM
TGI [22]: 28.9 µM
GI50 [23]: 12.1 µM
TGI [23]: 32.3 µM
GI50 [24]: 3.04 µM
TGI [24]: 15.2 µM
GI50 [25]: 23.6 µM
TGI [25]: 53.5 µM
GI50 [26]: 31.5 µM
TGI [26]: 91.1 µM
GI50 [27]: 16.1 µM
TGI [27]: 40.8 µM
GI50 [28]: 12.8 µM
TGI [28]: 29.9 µM
GI50 [29]: 12.9 µM
TGI [29]: 26.2 µM
GI50 [30]: 14.6 µM
TGI [30]: 27.8 µM
GI50 [31]: 8.75 µM
TGI [31]: 21.4 µM
GI50 [32]: 14.2 µM
TGI [32]: 27.3 µM
GI50 [33]: 15.1 µM
TGI [33]: 35.3 µM
GI50 [34]: 19.2 µM
TGI [34]: 43.6 µM
GI50 [35]: 14.9 µM
TGI [35]: > 100 µM
GI50 [36]: 15.1 µM
TGI [36]: 32.7 µM
GI50 [37]: 17.9 µM
TGI [37]: > 100 µM
GI50 [38]: 12.5 µM
TGI [38]: 26.2 µM
GI50 [39]: 16.2 µM
TGI [39]: 30.7 µM
GI50 [40]: 18.9 µM
TGI [40]: 74 µM
GI50 [41]: 5.61 µM
TGI [41]: 22.7 µM
GI50 [42]: 15.5 µM
TGI [42]: 38 µM
GI50 [43]: 14 µM
TGI [43]: 33.2 µM
GI50 [44]: 30.3 µM
TGI [44]: > 100 µM
GI50 [45]: 12.9 µM
TGI [45]: 25.7 µM
GI50 [46]: 18.9 µM
TGI [46]: 37.6 µM
GI50 [47]: 4.17 µM
TGI [47]: 27 µM
GI50 [48]: 16.5 µM
TGI [48]: 36.4 µM
GI50 [49]: 11.9 µM
TGI [49]: 26.3 µM
GI50 [50]: 3.6 µM
TGI [50]: 17.4 µM
GI50 [51]: 4.95 µM
TGI [51]: 9.71 µM
GI50 [52]: 10.1 µM
TGI [52]: 51.3 µM
GI50 [53]: 17.2 µM
TGI [53]: 46.5 µM
